Tested on: PC3 cells
Test: NAMPT Cell Proliferation Assay
Type: cell-based
Settings: Homo sapiens, PC-3, 120 h, 5 days incubation, cell viability by Cell Titer Glo
Summary of the method: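 Seeded at 500 cells/well in RPMI with 10% heat-inactivated FBS and left to attach overnight at 37° C, 5% CO2. Compounds were added as 10-fold dilutions […] for 5 days, then viability was read by CellTiter-Glo. IC50s came from sigmoidal fits of percent inhibition.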

| Structure (SMILES) | IC50 [pM] |
| --- | --- |
| CC1(C(=O)N2CCC(c3ccc(NC(=O)C4CN(c5cccnc5)C4)cc3)CC2)CC1 [Example 110, N-(4-{1-[(1-methylcyclopropyl)carbonyl]piperidin-4-yl}phenyl)-1-(pyridin-3-yl)azetidine-3-carboxamide] | 260 |
| Cc1ccsc1C(=O)N1CCC(c2ccc(NC(=O)C3CN(c4cccnc4)C3)cc2)CC1 [Example 111, N-(4-{1-[(3-methylthiophen-2-yl)carbonyl]piperidin-4-yl}phenyl)-1-(pyridin-3-yl)azetidine-3-carboxamide] | 640 |
| O=C(Nc1ccc(C2CCN(C(=O)CCC(F)(F)F)CC2)cc1)C1CN(c2cccnc2)C1 [Example 112, 1-(pyridin-3-yl)-N-{4-[1-(4,4,4-trifluorobutanoyl)piperidin-4-yl]phenyl}azetidine-3-carboxamide] | 760 |
| CN1CCN(CC(=O)N2CCC(c3ccc(NC(=O)C4CN(c5cccnc5)C4)cc3)CC2)CC1 [Example 113, N-(4-{1-[(4-methylpiperazin-1-yl)acetyl]piperidin-4-yl}phenyl)-1-(pyridin-3-yl)azetidine-3-carboxamide] | 6340 |
| O=C1CC[C@@H](C(=O)N2CCC(c3ccc(NC(=O)C4CN(c5cccnc5)C4)cc3)CC2)N1 [Example 114, N-{4-[1-(5-oxo-L-prolyl)piperidin-4-yl]phenyl}-1-(pyridin-3-yl)azetidine-3-carboxamide] | 18100 |
| CCOCCC(=O)N1CCC(c2ccc(NC(=O)C3CN(c4cccnc4)C3)cc2)CC1 [Example 115, N-{4-[1-(3-ethoxypropanoyl)piperidin-4-yl]phenyl}-1-(pyridin-3-yl)azetidine-3-carboxamide] | 400 |
| CC(C)CCC(=O)N1CCC(c2ccc(NC(=O)C3CN(c4cccnc4)C3)cc2)CC1 [Example 116, N-{4-[1-(4-methylpentanoyl)piperidin-4-yl]phenyl}-1-(pyridin-3-yl)azetidine-3-carboxamide] | 640 |
| CC1(C(=O)N2CCC(c3ccc(NC(=O)C4CN(c5cccnc5)C4)cc3)CC2)CCCCC1 [Example 117, N-(4-{1-[(1-methylcyclohexyl)carbonyl]piperidin-4-yl}phenyl)-1-(pyridin-3-yl)azetidine-3-carboxamide] | 630 |
| CC(=O)N1CCC(c2ccc(NC(=O)C3CN(c4cccnc4)C3)cc2)CC1 [Example 118, N-[4-(1-acetylpiperidin-4-yl)phenyl]-1-(pyridin-3-yl)azetidine-3-carboxamide] | 220 |
| O=C(Nc1ccc(C2CCN(C(=O)CC3CCCCC3)CC2)cc1)C1CN(c2cccnc2)C1 [Example 119, N-{4-[1-(cyclohexylacetyl)piperidin-4-yl]phenyl}-1-(pyridin-3-yl)azetidine-3-carboxamide] | 190 |
| CC(=O)N[C@@H](CC(C)C)C(=O)N1CCC(c2ccc(NC(=O)C3CN(c4cccnc4)C3)cc2)CC1 [Example 120, N-{4-[1-(N-acetyl-L-leucyl)piperidin-4-yl]phenyl}-1-(pyridin-3-yl)azetidine-3-carboxamide] | 230 |
| CCC(=O)N1CCC(c2ccc(NC(=O)C3CN(c4cccnc4)C3)cc2)CC1 [Example 121, N-[4-(1-propanoylpiperidin-4-yl)phenyl]-1-(pyridin-3-yl)azetidine-3-carboxamide] | 620 |
| O=C(Nc1ccc(C2CCN(C(=O)CC(F)(F)F)CC2)cc1)C1CN(c2cccnc2)C1 [Example 122, 1-(pyridin-3-yl)-N-{4-[1-(3,3,3-trifluoropropanoyl)piperidin-4-yl]phenyl}azetidine-3-carboxamide] | 610 |
| COCCOCC(=O)N1CCC(c2ccc(NC(=O)C3CN(c4cccnc4)C3)cc2)CC1 [Example 123, N-(4-{1-[(2-methoxyethoxy)acetyl]piperidin-4-yl}phenyl)-1-(pyridin-3-yl)azetidine-3-carboxamide] | 1030 |
| O=C(Nc1ccc(C2CCN(C(=O)CCN3CCOCC3)CC2)cc1)C1CN(c2cccnc2)C1 [Example 124, N-(4-{1-[3-(morpholin-4-yl)propanoyl]piperidin-4-yl}phenyl)-1-(pyridin-3-yl)azetidine-3-carboxamide] | 1440 |
| CC(C)(C)C(=O)N1CCC(c2ccc(NC(=O)C3CN(c4cccnc4)C3)cc2)CC1 [Example 125, N-{4-[1-(2,2-dimethylpropanoyl)piperidin-4-yl]phenyl}-1-(pyridin-3-yl)azetidine-3-carboxamide] | 240 |
| Cc1ccc(C(=O)N2CCC(c3ccc(NC(=O)C4CN(c5cccnc5)C4)cc3)CC2)s1 [Example 126, N-(4-{1-[(5-methylthiophen-2-yl)carbonyl]piperidin-4-yl}phenyl)-1-(pyridin-3-yl)azetidine-3-carboxamide] | 260 |
| O=C(Nc1ccc(C2CCN(C(=O)c3cccs3)CC2)cc1)C1CN(c2cccnc2)C1 [Example 127, 1-(pyridin-3-yl)-N-{4-[1-(thiophen-2-ylcarbonyl)piperidin-4-yl]phenyl}azetidine-3-carboxamide] | 140 |
| Cn1cccc1C(=O)N1CCC(c2ccc(NC(=O)C3CN(c4cccnc4)C3)cc2)CC1 [Example 128, N-(4-{1-[(1-methyl-1H-pyrrol-2-yl)carbonyl]piperidin-4-yl}phenyl)-1-(pyridin-3-yl)azetidine-3-carboxamide] | 160 |

| Structure (SMILES) | IC50 [pM] |
| --- | --- |
| O=C(Nc1ccc(C2CCN(C(=O)c3ccco3)CC2)cc1)C1CN(c2cccnc2)C1 [Example 129, N-{4-[1-(furan-2-ylcarbonyl)piperidin-4-yl]phenyl}-1-(pyridin-3-yl)azetidine-3-carboxamide] | 160 |
| O=C(Nc1ccc(C2CCN(C(=O)CCN3CCCCC3)CC2)cc1)C1CN(c2cccnc2)C1 [Example 130, N-(4-{1-[3-(piperidin-1-yl)propanoyl]piperidin-4-yl}phenyl)-1-(pyridin-3-yl)azetidine-3-carboxamide] | 1810 |
| CCOCC(=O)N1CCC(c2ccc(NC(=O)C3CN(c4cccnc4)C3)cc2)CC1 [Example 131, N-{4-[1-(ethoxyacetyl)piperidin-4-yl]phenyl}-1-(pyridin-3-yl)azetidine-3-carboxamide] | 300 |
| CC(C)(C)CC(=O)N1CCC(c2ccc(NC(=O)C3CN(c4cccnc4)C3)cc2)CC1 [Example 132, N-{4-[1-(3,3-dimethylbutanoyl)piperidin-4-yl]phenyl}-1-(pyridin-3-yl)azetidine-3-carboxamide] | 230 |
| CCC(C)(C)C(=O)N1CCC(c2ccc(NC(=O)C3CN(c4cccnc4)C3)cc2)CC1 [Example 133, N-{4-[1-(2,2-dimethylbutanoyl)piperidin-4-yl]phenyl}-1-(pyridin-3-yl)azetidine-3-carboxamide] | 620 |
| CCCC(=O)N1CCC(c2ccc(NC(=O)C3CN(c4cccnc4)C3)cc2)CC1 [Example 134, N-[4-(1-butanoylpiperidin-4-yl)phenyl]-1-(pyridin-3-yl)azetidine-3-carboxamide] | 640 |
| COCC(=O)N1CCC(c2ccc(NC(=O)C3CN(c4cccnc4)C3)cc2)CC1 [Example 135, N-{4-[1-(methoxyacetyl)piperidin-4-yl]phenyl}-1-(pyridin-3-yl)azetidine-3-carboxamide] | 300 |
| O=C(Nc1ccc(C2CCN(C(=O)C3CCCCC3)CC2)cc1)C1CN(c2cccnc2)C1 [Example 136, N-{4-[1-(cyclohexylcarbonyl)piperidin-4-yl]phenyl}-1-(pyridin-3-yl)azetidine-3-carboxamide] | 230 |
| CC(C)CC(=O)N1CCC(c2ccc(NC(=O)C3CN(c4cccnc4)C3)cc2)CC1 [Example 137, N-{4-[1-(3-methylbutanoyl)piperidin-4-yl]phenyl}-1-(pyridin-3-yl)azetidine-3-carboxamide] | 310 |
| O=C(Nc1ccc(C2CCN(C(=O)C3CCCC3)CC2)cc1)C1CN(c2cccnc2)C1 [Example 138, N-{4-[1-(cyclopentylcarbonyl)piperidin-4-yl]phenyl}-1-(pyridin-3-yl)azetidine-3-carboxamide] | 230 |
| CC(C)C(C)C(=O)N1CCC(c2ccc(NC(=O)C3CN(c4cccnc4)C3)cc2)CC1 (stereo not shown) [Example 139, N-{4-[1-(2,3-dimethylbutanoyl)piperidin-4-yl]phenyl}-1-(pyridin-3-yl)azetidine-3-carboxamide] | 180 |
| CC(C)(C)CC(=O)N1CCC(c2ccc(NC(=O)C3CN(c4ccnnc4)C3)cc2)CC1 [Example 140, N-{4-[1-(3,3-dimethylbutanoyl)piperidin-4-yl]phenyl}-1-(pyridazin-4-yl)azetidine-3-carboxamide] | 3540 |
| CC(C)(O)C(=O)N1CCC(c2ccc(NC(=O)[C@H]3CCN(c4ccnnc4)C3)cc2)CC1 [Example 141, (3S)—N-{4-[1-(2-hydroxy-2-methylpropanoyl)piperidin-4-yl]phenyl}-1-(pyridazin-4-yl)pyrrolidine-3-carboxamide] | 834000 |
| O=C(Nc1ccc(C2CCN(C(=O)CC3CCCC3)CC2)cc1)[C@H]1CCN(c2ccnnc2)C1 [Example 142, (3S)—N-{4-[1-(cyclopentylacetyl)piperidin-4-yl]phenyl}-1-(pyridazin-4-yl)pyrrolidine-3-carboxamide] | 741000 |
| CC[C@H](C)C(=O)N1CCC(c2ccc(NC(=O)C3CN(c4ccnnc4)C3)cc2)CC1 [Example 143, N-(4-{1-[(2S)-2-methylbutanoyl]piperidin-4-yl}phenyl)-1-(pyridazin-4-yl)azetidine-3-carboxamide] | 4960 |
| O=C(Nc1ccc(C2CCN(C(=O)CC3CCCC3)CC2)cc1)C1CN(c2ccnnc2)C1 [Example 144, N-{4-[1-(cyclopentylacetyl)piperidin-4-yl]phenyl}-1-(pyridazin-4-yl)azetidine-3-carboxamide] | 18400 |
| O=C(Nc1ccc(C2CCN(C(=O)CC3CCOCC3)CC2)cc1)C1CN(c2ccnnc2)C1 [Example 145, 1-(pyridazin-4-yl)-N-{4-[1-(tetrahydro-2H-pyran-4-ylacetyl)piperidin-4-yl]phenyl}azetidine-3-carboxamide] | 70900 |
| O=C(Nc1ccc(C2CCN(C(=O)C3CCOCC3)CC2)cc1)C1CN(c2ccnnc2)C1 [Example 146, 1-(pyridazin-4-yl)-N-{4-[1-(tetrahydro-2H-pyran-4-ylcarbonyl)piperidin-4-yl]phenyl}azetidine-3-carboxamide] | 70700 |
